Reference: ChEMBL document CHEMBL1126257, “Fluoronaphthyridines and -quinolones as antibacterial agents. 5. Synthesis and antimicrobial activity of chiral 1-tert-butyl-6-fluoro-7-substituted-naphthyridones” (J Med Chem, 1992)
In brackets after ≈: the same amount, converted by molar mass.

Legend:
Pseudomonas aeruginosa [1] = experiment: In vitro antibacterial activity against Pseudomonas aeruginosa A 9243.; assay type: functional
Enterococcus faecalis = experiment: In vitro antibacterial activity against Enterococcus faecalis A9809.; assay type: functional
Enterococcus faecium = experiment: In vitro antibacterial activity against Enterococcus faecium A 24885.; assay type: functional
Escherichia coli [2] = experiment: In vitro antibacterial activity against Escherichia coli A 15119.; assay type: functional
Enterobacter cloacae = experiment: In vitro antibacterial activity against Enterobacter cloacae A 9656.; assay type: functional
Staphylococcus aureus [3] = experiment: animal or person; settings: in Mus musculus, po, read-out: PD50
Description: In vivo potency on systemic infection caused by Staphylococcus aureus A9537 after oral administration to mice expressed as median protective dose.

Pseudomonas aeruginosa [4] = experiment: (§1) In vivo potency on systemic infection caused by after oral administration to mice expressed as median protective dose.; assay type: functional; settings: read-out: PD50
Escherichia coli [5] = experiment: as §1; assay type: functional; settings: read-out: PD50
Klebsiella pneumoniae [6] = experiment: as §1; assay type: functional; settings: read-out: PD50
Morganella morganii = experiment: In vitro antibacterial activity against Morganella morganii A 15153.; assay type: functional
Klebsiella pneumoniae [7] = experiment: In vitro antibacterial activity against Klebsiella pneumoniae A 9664.; assay type: functional
Staphylococcus aureus [8] = experiment: In vitro antibacterial activity against Staphylococcus aureus A9537.; assay type: functional
Serratia marcescens = experiment: In vitro antibacterial activity against Serratia marcescens A 20019.; assay type: functional
Klebsiella pneumoniae [9] = experiment: In vivo potency on systemic infection caused by Klebsiella pneumoniae A 9664 after oral administration to mice expressed as median protective dose.; assay type: functional; settings: read-out: PD50
Escherichia coli [10] = experiment: In vivo potency on systemic infection caused by Escherichia coli A 15119 after oral administration to mice expressed as median protective dose.; assay type: functional; settings: read-out: PD50
Klebsiella pneumoniae [11] = experiment: In vivo potency on systemic infection caused by after oral administration to mice expressed as median protective dose perorally; assay type: functional; settings: read-out: PD50
Escherichia coli [12] = experiment: In vivo potency on systemic infection caused Escherichia coli A 15119 by after oral administration to mice expressed as median protective dose.; assay type: functional; settings: read-out: PD50
in vivo = settings: mouse, po, 50 mg/kg
[13] = Pseudomonas aeruginosa, read-out: MIC
[14] = Enterococcus faecalis, read-out: MIC
[15] = Enterococcus faecium, read-out: MIC
[16] = Escherichia coli, read-out: MIC
[17] = Enterobacter cloacae, read-out: MIC
[18] = Morganella morganii, read-out: MIC
[19] = Klebsiella pneumoniae, read-out: MIC
[20] = Staphylococcus aureus, read-out: MIC
[21] = Serratia marcescens, read-out: MIC

Row | SMILES | MIC (Pseudomonas aeruginosa [1]; [13]) [µg/mL] | MIC (Enterococcus faecalis; [14]) [µg/mL] | MIC (Enterococcus faecium; [15]) [µg/mL] | MIC (Escherichia coli [2]; [16]) [µg/mL] | MIC (Enterobacter cloacae; [17]) [µg/mL] | MIC (Morganella morganii; [18]) [µg/mL] | MIC (Klebsiella pneumoniae [7]; [19]) [µg/mL] | MIC (Staphylococcus aureus [8]; [20]) [µg/mL] | MIC (Serratia marcescens; [21]) [µg/mL] | also measured
1 | C[C@H]1CN(c2nc3c(cc2F)c(=O)c(C(=O)O)cn3C(C)(C)C)C[C@H]1N | 1 (≈ 2.76 µM) | 0.25 (≈ 0.69 µM) | 1 (≈ 2.76 µM) | 0.016 (≈ 0.0441 µM) | 0.13 (≈ 0.359 µM) | 0.13 (≈ 0.359 µM) | 0.5 (≈ 1.38 µM) | 0.008 (≈ 0.0221 µM) | 0.13 (≈ 0.359 µM) | ED50 (Staphylococcus aureus [3]): 1 mg/kg; ED50 (Pseudomonas aeruginosa [4]): 4.7 mg/kg; ED50 (Escherichia coli [5]): 1.4 mg/kg; ED50 (Klebsiella pneumoniae [6]): 3.9 mg/kg
2 | C[C@H]1CN(c2nc3c(cc2F)c(=O)c(C(=O)O)cn3C(C)(C)C)C[C@@H]1N | 2 (≈ 5.52 µM) | 0.25 (≈ 0.69 µM) | 4 (≈ 11 µM) | 0.06 (≈ 0.166 µM) | 0.03 (≈ 0.0828 µM) | 0.25 (≈ 0.69 µM) | 0.25 (≈ 0.69 µM) | 0.015 (≈ 0.0414 µM) | 0.5 (≈ 1.38 µM) | 
3 | CC(C)(C)n1cc(C(=O)O)c(=O)c2cc(F)c(N3CC[C@H](N)C3)nc21 | 0.13 (≈ 0.373 µM) | 0.03 (≈ 0.0861 µM) | 0.5 (≈ 1.44 µM) | 0.015 (≈ 0.0431 µM) | 0.13 (≈ 0.373 µM) | 0.13 (≈ 0.373 µM) | 0.03 (≈ 0.0861 µM) | 0.0005 (≈ 0.00144 µM) | 0.13 (≈ 0.373 µM) | ED50 (Klebsiella pneumoniae [9]): 3.5 mg/kg; ED50 (Escherichia coli [10]): 1.2 mg/kg
4 | C[C@@H]1CN(c2nc3c(cc2F)c(=O)c(C(=O)O)cn3C(C)(C)C)C[C@@H]1N | 1 (≈ 2.76 µM) | 0.5 (≈ 1.38 µM) | 4 (≈ 11 µM) | 0.13 (≈ 0.359 µM) | 0.03 (≈ 0.0828 µM) | 0.5 (≈ 1.38 µM) | 0.06 (≈ 0.166 µM) | 0.015 (≈ 0.0414 µM) | 0.5 (≈ 1.38 µM) | 
5 | C[C@@H]1CN(c2nc3c(cc2F)c(=O)c(C(=O)O)cn3C(C)(C)C)C[C@H]1N | 0.5 (≈ 1.38 µM) | 0.06 (≈ 0.166 µM) | 0.5 (≈ 1.38 µM) | 0.016 (≈ 0.0441 µM) | 0.016 (≈ 0.0441 µM) | 0.25 (≈ 0.69 µM) | 0.03 (≈ 0.0828 µM) | 0.002 (≈ 0.00552 µM) | 0.25 (≈ 0.69 µM) | ED50 (Klebsiella pneumoniae [11]): 0.81 mg/kg; ED50 (Staphylococcus aureus [3]): 1.2 mg/kg; ED50 (Pseudomonas aeruginosa [4]): 5.5 mg/kg; ED50 (Escherichia coli [5]): 2.1 mg/kg
6 | C[C@H]1C[C@@H](N)CN1c1nc2c(cc1F)c(=O)c(C(=O)O)cn2C(C)(C)C | 2 (≈ 5.52 µM) | 0.25 (≈ 0.69 µM) | 2 (≈ 5.52 µM) | 0.03 (≈ 0.0828 µM) | 0.03 (≈ 0.0828 µM) | 0.5 (≈ 1.38 µM) | 0.06 (≈ 0.166 µM) | 0.015 (≈ 0.0414 µM) | 0.5 (≈ 1.38 µM) | 
7 | CC1(C)CN(c2nc3c(cc2F)c(=O)c(C(=O)O)cn3C(C)(C)C)C[C@H]1N | 2 (≈ 5.31 µM) | 0.25 (≈ 0.664 µM) | 2 (≈ 5.31 µM) | 0.06 (≈ 0.159 µM) | 0.03 (≈ 0.0797 µM) | 0.5 (≈ 1.33 µM) | 0.13 (≈ 0.345 µM) | 0.015 (≈ 0.0398 µM) | 0.5 (≈ 1.33 µM) | 
8 | C[C@@H]1C[C@H](N)CN1c1nc2c(cc1F)c(=O)c(C(=O)O)cn2C(C)(C)C | 8 (≈ 22.1 µM) | 0.5 (≈ 1.38 µM) | 2 (≈ 5.52 µM) | 0.25 (≈ 0.69 µM) | 0.25 (≈ 0.69 µM) | 2 (≈ 5.52 µM) | 0.25 (≈ 0.69 µM) | 0.13 (≈ 0.359 µM) | 2 (≈ 5.52 µM) | 
9 | CC1(C)CN(c2nc3c(cc2F)c(=O)c(C(=O)O)cn3C(C)(C)C)C[C@@H]1N | 4 (≈ 10.6 µM) | 4 (≈ 10.6 µM) | 4 (≈ 10.6 µM) | 0.06 (≈ 0.159 µM) | 0.25 (≈ 0.664 µM) | 0.25 (≈ 0.664 µM) | 0.25 (≈ 0.664 µM) | 0.03 (≈ 0.0797 µM) | 0.25 (≈ 0.664 µM) | 
10 | CC(C)(C)n1cc(C(=O)O)c(=O)c2cc(F)c(N3CC[C@@H](N)C3)nc21 | 0.25 (≈ 0.718 µM) | 0.13 (≈ 0.373 µM) | 1 (≈ 2.87 µM) | 0.06 (≈ 0.172 µM) | 0.06 (≈ 0.172 µM) | 0.25 (≈ 0.718 µM) | 0.13 (≈ 0.373 µM) | 0.015 (≈ 0.0431 µM) | 0.25 (≈ 0.718 µM) | ED50 (Klebsiella pneumoniae [9]): 4.9 mg/kg; ED50 (Escherichia coli [12]): 4.9 mg/kg
11 | CN(C)[C@H]1CCN(c2nc3c(cc2F)c(=O)c(C(=O)O)cn3C(C)(C)C)C1 | 2 (≈ 5.31 µM) | 0.5 (≈ 1.33 µM) | 4 (≈ 10.6 µM) | 0.015 (≈ 0.0398 µM) | 0.03 (≈ 0.0797 µM) |  | 0.06 (≈ 0.159 µM) | 0.03 (≈ 0.0797 µM) | 1 (≈ 2.66 µM) | 
12 | CN[C@@H]1CCN(c2nc3c(cc2F)c(=O)c(C(=O)O)cn3C(C)(C)C)C1 | 1 (≈ 2.76 µM) | 1 (≈ 2.76 µM) | 8 (≈ 22.1 µM) | 0.06 (≈ 0.166 µM) | 0.13 (≈ 0.359 µM) | 0.5 (≈ 1.38 µM) | 0.13 (≈ 0.359 µM) | 0.03 (≈ 0.0828 µM) | 0.5 (≈ 1.38 µM) | 
13 | CN(C)C1CCN(c2nc3c(cc2F)c(=O)c(C(=O)O)cn3C(C)(C)C)C1 (stereo not drawn) | 1 (≈ 2.66 µM) | 1 (≈ 2.66 µM) | 8 (≈ 21.3 µM) | 0.25 (≈ 0.664 µM) | 1 (≈ 2.66 µM) | 0.5 (≈ 1.33 µM) | 0.13 (≈ 0.345 µM) | 0.03 (≈ 0.0797 µM) | 1 (≈ 2.66 µM) | 
14 | CN[C@H]1CCN(c2nc3c(cc2F)c(=O)c(C(=O)O)cn3C(C)(C)C)C1 | 0.25 (≈ 0.69 µM) | 1 (≈ 2.76 µM) | 2 (≈ 5.52 µM) | 0.03 (≈ 0.0828 µM) | 0.06 (≈ 0.166 µM) | 0.25 (≈ 0.69 µM) | 0.06 (≈ 0.166 µM) | 0.015 (≈ 0.0414 µM) | 0.25 (≈ 0.69 µM) | ED50 (Staphylococcus aureus [3]): 0.31 mg/kg; ED50 (Pseudomonas aeruginosa [4]): 6.1 mg/kg; ED50 (Escherichia coli [5]): 1.2 mg/kg; ED50 (Klebsiella pneumoniae [6]): 2.6 mg/kg
15 | C[C@@H]1C[C@@H](N)CN1c1nc2c(cc1F)c(=O)c(C(=O)O)cn2C(C)(C)C (stereo in doubt; 67) |  |  |  |  |  |  |  |  |  | MIC (Pseudomonas aeruginosa [1]): 16 µg/mL (≈ 44.1 µM); MIC (Enterococcus faecalis): 1 µg/mL (≈ 2.76 µM); MIC (Enterococcus faecium): 8 µg/mL (≈ 22.1 µM); MIC (Escherichia coli [2]): 0.25 µg/mL (≈ 0.69 µM); MIC (Enterobacter cloacae): 0.5 µg/mL (≈ 1.38 µM); MIC (Morganella morganii): 4 µg/mL (≈ 11 µM); MIC (Klebsiella pneumoniae [7]): 0.5 µg/mL (≈ 1.38 µM); MIC (Staphylococcus aureus [8]): 0.13 µg/mL (≈ 0.359 µM); MIC (Serratia marcescens): 2 µg/mL (≈ 5.52 µM)
16 | C[C@@H]1C[C@@H](N)CN1c1nc2c(cc1F)c(=O)c(C(=O)O)cn2C(C)(C)C (stereo in doubt; 68) |  |  |  |  |  |  | 0.5 (≈ 1.38 µM) |  |  | MIC (Pseudomonas aeruginosa [1]): 0.5 µg/mL (≈ 1.38 µM); MIC (Enterococcus faecalis): 0.03 µg/mL (≈ 0.0828 µM); MIC (Enterococcus faecium): 0.5 µg/mL (≈ 1.38 µM); MIC (Escherichia coli [2]): 0.016 µg/mL (≈ 0.0441 µM); MIC (Enterobacter cloacae): 0.13 µg/mL (≈ 0.359 µM); ED50 (Staphylococcus aureus [3]): 0.9 mg/kg; ED50 (Pseudomonas aeruginosa [4]): 14.4 mg/kg; ED50 (Escherichia coli [5]): 2.6 mg/kg; ED50 (Klebsiella pneumoniae [6]): 8.2 mg/kg; MIC (Morganella morganii): 0.25 µg/mL (≈ 0.69 µM); MIC (Staphylococcus aureus [8]): 0.002 µg/mL (≈ 0.00552 µM); MIC (Serratia marcescens): 0.5 µg/mL (≈ 1.38 µM)
17 | O=C(O)c1cn(C2CC2)c2cc(N3CCNCC3)c(F)cc2c1=O [CIPROFLOXACIN] |  |  | 4 (≈ 12.1 µM) |  |  | 0.06 (≈ 0.181 µM) | 0.06 (≈ 0.181 µM) | 0.06 (≈ 0.181 µM) | 0.03 (≈ 0.0905 µM) | ED50 (Staphylococcus aureus [3]): 4 mg/kg; ED50 (Pseudomonas aeruginosa [4]): 5 mg/kg; ED50 (Escherichia coli [5]): 0.7 mg/kg; ED50 (Klebsiella pneumoniae [6]): 1.5 mg/kg; Cmax (in vivo): 5900 ng/mL
